System: goat anti-rabbit IgG (GAR)
Assay: Protein precipitation / water solubility of dye-protein conjugates at high dye/protein ratio
Assay type: physicochemical
Text: FIG. 1. […] Their PBS solutions are adjusted to have the same absorption of OD=0.05 at 600 nm. The PBS solutions are excited at 600 nm, and the emissions are scanned from 620 to 800 nm.
FIG. 2. […] Their PBS solutions are adjusted to have the same absorption of OD=0.05 at 600 nm. The PBS solutions are excited at 600 nm, and the emissions are scanned from 620 to 800 nm.
FIG. 3. […] Their PBS solutions are adjusted to have the same absorption of OD=0.1 at 450 nm. The PBS solutions are excited at 460 nm, and the emissions are scanned from 470 to 650 nm.
The typical method for protein conjugation with succinimidyl esters of the invention is as follows. Variations in ratios of dye to protein, protein concentration, time, temperature, buffer composition and other variables that are well known in the art are possible that still yield useful conjugates. A solution of the protein is prepared at about 10 mg/mL in 0.1M sodium bicarbonate. The labeling reagents are dissolved in a suitable solvent such as DMF or DMSO at about 10 mg/mL. Water is a suitable solvent for many dyes of the invention. Predetermined amounts of the labeling reagents are added to the protein solutions with stiffing. A molar ratio of 10 equivalents of dye to 1 equivalent of protein is typical, though the optimal amount varies with the particular labeling reagent, the protein being labeled and the protein's concentration, and is determined empirically.

[1] = ratio of dye/protein larger than 8
[2] = ratio of dye/protein larger than 10

Row | SMILES | protein precipitation / water solubility of dye-protein conjugate [1] | protein precipitation / water solubility of dye-protein conjugate [2]
1 | CC12CCCCCC(=O)NCCCCCNC(=O)C(CS(=O)(=O)O)NC(=O)C(CS(=O)(=O)O)NC(=O)C(CS(=O)(=O)O)NC(=O)CCCCCC3(C)/C(=C/C=C/C=C/C1=[N+](CCCCCC(=O)ON1C(=O)CCC1=O)c1ccc(S(=O)(=O)O)cc12)N(CCCCCC(=O)ON1C(=O)CCC1=O)c1ccc(S(=O)(=O)O)cc13 (stereo not shown) [Compound 39] | still water soluble | –
2 | CC1(C)C2=[N+](CCCCCC(=O)NC(C(=O)NCCCCCC(=O)ON3C(=O)CCC3=O)CCCCNC(=O)CCCCCC3(C)/C(=C/C=C/C=C/2)N(CCCS(=O)(=O)O)c2ccc(S(=O)(=O)O)cc23)c2ccc(S(=O)(=O)[O-])cc21 (stereo not shown) [Compound 133] | – | causes protein to precipitate
3 | CC1(C)C2=[N+](CCCCCC(=O)NC(Cc3ccc(S(=O)(=O)O)s3)C(=O)NCCCCC(C(=O)NCCCCCC(=O)ON3C(=O)CCC3=O)NC(=O)C(Cc3ccc(S(=O)(=O)[O-])s3)NC(=O)CCCCCC3(C)/C(=C/C=C/C=C/2)N(CCCS(=O)(=O)O)c2ccc(S(=O)(=O)O)cc23)c2ccc(S(=O)(=O)O)cc21 (stereo not shown) [Compound 134] | – | still water soluble
4 | CC12CCCCCC(=O)NCCCCCCCCCCCCNC(=O)CCCCCC3(C)/C(=C/C=C/C=C/C1=[N+](CCCCCC(=O)ON1C(=O)CCC1=O)c1ccc(S(=O)(=O)O)cc12)N(CCCCCC(=O)ON1C(=O)CCC1=O)c1ccc(S(=O)(=O)O)cc13 (stereo not shown) [Compound 136] | causes protein to precipitate | –

Reference: patent US8623324B2, “Luminescent dyes with a water-soluble intramolecular bridge and their biological conjugates” (AAT Bioquest Inc., priority 2010, dated 2014)
